Read-outs that look alike come from different tables or passages of the source.
Key:
BaGST3 [1] = assay: Substrate specificity (glutathione transferase and peroxidase assays); type: biochemical, Biomphalaria alexandrina
Text: (§1) One unit of transferase activity is defined as the amount of enzyme which catalyzes the formation of 1 μmol of thioether per min, and the specific activity is expressed as μmol/min/mg protein.
(§2) Enzyme activity with various aromatic substrates, namely, bromosulfophthalein (BSP), 1, 2-dichloro-4-nitrobenzene (DCNB), p-nitrophenethyl-bromide, and ethacrynic acid (EA), was examined as described.
(§3) Substrate specificities of BaGST2 and BaGST3 toward several compounds were studied.

BaGST2 [2] = assay: as above; type: biochemical, Biomphalaria alexandrina
Text: as §1, §2, §3

BaGST3 [3] = assay: Inhibition of GSH-CDNB-conjugating activity and type of inhibition; type: biochemical, Biomphalaria alexandrina; conditions: for IC50: GSH-CDNB-conjugating activity, standard assay conditions; for Type of inhibition / Vmax in the presence of inhibitor: CDNB as substrate; for Type of inhibition: inhibitor at less than I20; for Vmax in the presence of inhibitor: inhibitor at less than I20, without inhibitor 48.8
Protocol: as §1
(§4) The IC50 values were determined according to Yalcin [18]. The IC50 values were determined by plotting percentage activity values versus log inhibitor concentrations.
(§5) The type of inhibition of BSP, hematin, and CB was also examined by studying the effect of constant concentration (less than IC20) of each inhibitor on the Km (CDNB) and Vmax of BaGST2 and BaGST3.

BaGST2 [4] = assay: as above; type: biochemical, Biomphalaria alexandrina; conditions: for Type of inhibition / Vmax in the presence of inhibitor: CDNB as substrate; for Type of inhibition: inhibitor at less than I20; for Vmax in the presence of inhibitor: inhibitor at less than I20, without inhibitor 75.5; for IC50: GSH-CDNB-conjugating activity, standard assay conditions
Protocol: as §1, §4, §5

BaGST3 [5] = assay: Kinetic studies with varied GSH and CDNB concentrations; type: biochemical, Biomphalaria alexandrina
Text: as §1

BaGST2 [6] = assay: as above; type: biochemical, Biomphalaria alexandrina; conditions: 25 °C, substrate varied (CDNB 0.01-1.5 mM, GSH 0.025-1.5 mM)
Text: as §1

[7] = target: Biomphalaria alexandrina glutathione transferase BaGST3 (Biomphalaria alexandrina); assay: SEC; Sephadex G-75 column (90 x 1.4 cm), 20 mM Tris-HCl pH 8.0, 100 mM NaCl, 4 °C; calibrated with standard proteins; apparent MW about 45 kDa compared with the subunit MW of 23.6 kDa by SDS-PAGE

## O=C1OC(c2ccc(O)c(S(=O)(=O)O)c2)(c2ccc(O)c(S(=O)(=O)O)c2)c2c(Br)c(Br)c(Br)c(Br)c21 [BSP, bromosulfophthalein]
BaGST3 [1]; BaGST3
  Activity toward substrate (in words): did not show any detectable activity
BaGST2 [2]; BaGST2
  Activity toward substrate (in words): did not show any detectable activity
BaGST3 [3]
  IC50: 95 µM
BaGST2 [4]
  Type of inhibition: Competitive
  Vmax in the presence of inhibitor: 75.5 μmol/min/mg protein
  IC50: 80.4 µM

## Nc1c(S(=O)(=O)O)cc(Nc2ccc(Nc3nc(Cl)nc(Nc4ccccc4S(=O)(=O)O)n3)c(S(=O)(=O)O)c2)c2c1C(=O)c1ccccc1C2=O [CB, Cibacron Blue]
BaGST3 [3]
  Type of inhibition: Competitive
  Vmax in the presence of inhibitor: 48.8 μmol/min/mg protein
  IC50: 0.58 µM
BaGST2 [4]
  Type of inhibition: Competitive
  Vmax in the presence of inhibitor: 75.5 μmol/min/mg protein
  IC50: 2.35 µM

## O=[N+]([O-])c1ccc(Cl)c([N+](=O)[O-])c1 [CDNB, 1-chloro-2,4-dinitrobenzene]
BaGST3 [1]; BaGST3 after GSH-Sepharose, 346-fold purification
  Specific activity toward CDNB: 45.2 μmol/min/mg protein
BaGST2 [2]; BaGST2 after GSH-Sepharose, 146-fold purification
  Specific activity toward CDNB: 19.0 μmol/min/mg protein
BaGST3 [5]; 25 °C, CDNB varied 0.01-1.5 mM, read-out: Km
  Km: 50 µM
BaGST2 [6]
  Km: 3330 µM

## CC(C)(OO)c1ccccc1 [CuOOH, cumene hydroperoxide]
BaGST3 [1]; BaGST3
  Activity toward substrate (in words): peroxidase activity
BaGST3 [1]; BaGST3, means ± SD, n ≥ 4
  Substrate specificity (specific activity): 1.40 ± 0.03 µmol/min/mg
BaGST2 [2]; BaGST2
  Activity toward substrate (in words): peroxidase activity
BaGST2 [2]; BaGST2, means ± SD, n ≥ 4
  Substrate specificity (specific activity): 0.60 ± 0.02 µmol/min/mg

## O=[N+]([O-])c1ccc(Cl)c(Cl)c1 [DCNB, 1,2-dichloro-4-nitrobenzene]
BaGST3 [1]; BaGST3
  Activity toward substrate (in words): low activity
BaGST3 [1]; BaGST3, means ± SD, n ≥ 4
  Substrate specificity (specific activity), DCNB × 10^3: 10 ± 0.6 μmol/min/mg × 10^3
BaGST2 [2]; BaGST2
  Activity toward substrate (in words): low activity
BaGST2 [2]; BaGST2, means ± SD, n ≥ 4
  Substrate specificity (specific activity), DCNB × 10^3: 30 ± 1.5 μmol/min/mg × 10^3

## C=C(CC)C(=O)c1ccc(OCC(=O)O)c(Cl)c1Cl [EA, ethacrynic acid]
BaGST3 [1]; BaGST3
  Activity toward substrate (in words): high activity
BaGST3 [1]; BaGST3, means ± SD, n ≥ 4
  Substrate specificity (specific activity): 2.60 ± 0.10 µmol/min/mg
BaGST2 [2]; BaGST2
  Activity toward substrate (in words): high activity
BaGST2 [2]; BaGST2, means ± SD, n ≥ 4
  Substrate specificity (specific activity): 3.80 ± 0.11 µmol/min/mg

## N[C@@H](CCC(=O)N[C@@H](CS)C(=O)NCC(=O)O)C(=O)O [GSH, γ-L-glutamyl-L-cysteinyl-glycine]
BaGST3 [5]; read-out: Km (GSH), high GSH concentrations, non-Michaelian, GSH 0.5-5 mM
  Km: 610 µM
BaGST3 [5]; read-out: Km (GSH), low GSH concentrations, non-Michaelian, GSH 0.025-0.5 mM
  Km: 150 µM
BaGST2 [6]
  Km: 220 µM

## C=CC1=C(C)c2cc3[n-]c(cc4[n-]c(cc5nc(cc1n2)C(C)=C5C=C)c(C)c4CCC(=O)O)c(CCC(=O)O)c3C.O.[Fe+2] [Hematin, hematin]
BaGST3 [3]
  Type of inhibition: Noncompetitive
  Vmax in the presence of inhibitor: 15.8 μmol/min/mg protein
  IC50: 0.46 µM
BaGST2 [4]
  Type of inhibition: Mixed
  Vmax in the presence of inhibitor: 13.7 μmol/min/mg protein
  IC50: 1.35 µM

## N[C@@H](CCC(=O)N[C@@H](CSCc1ccc(Br)cc1)C(=O)NCC(=O)O)C(=O)O [S-P-bromobenzyl-GSH]
BaGST3 [3]
  IC50: 34.9 µM
BaGST2 [4]
  IC50: 9.3 µM

## CCCCSCC(NC(=O)CCC(N)C(=O)O)C(=O)NCC(=O)O (stereo not drawn) [S-butyl-GSH]
BaGST3 [3]
  IC50: 51.2 µM
BaGST2 [4]
  IC50: 69.1 µM

## CCCCCCSC[C@H](NC(=O)CC[C@H](N)C(=O)O)C(=O)NCC(=O)O [S–hexyl-GSH, S-hexyl-GSH]
BaGST3 [3]
  IC50: 19.5 µM
BaGST2 [4]
  IC50: 36.3 µM

## O=[N+]([O-])c1ccc(CCBr)cc1 [p-Nitro-phenethylbromide, p-nitrophenethyl-bromide]
BaGST3 [1]; BaGST3
  Activity toward substrate (in words): low activity
BaGST3 [1]; BaGST3, means ± SD, n ≥ 4
  Substrate specificity (specific activity): 6.00 ± 0.20 µmol/min/mg
BaGST2 [2]; BaGST2
  Activity toward substrate (in words): low activity
BaGST2 [2]; BaGST2, means ± SD, n ≥ 4
  Substrate specificity (specific activity): 2.70 ± 0.13 µmol/min/mg

## Biomphalaria alexandrina glutathione transferase BaGST3 (enzyme)
[7]
  stoichiometry N: 2

Reference: article PMC9259769, “Biochemical characterization and peptide mass fingerprinting of two glutathione transferases from Biomphalaria alexandrina snails (Gastropoda: Planorbidae)” (Journal of Genetic Engineering & Biotechnology, 2022)
